In US5942522A, “Antiviral compounds and antihypertensive compounds” (Schering Corporation, priority 1997, dated 1999):
Converted amounts (≈) assume the structure as drawn. Where two headings read alike, the source gives them in different places.

Experiments:
HSV-2 (strain MS) = experiment: HSV-β-Gal assay: transient expression of beta galactosidase in transfected HeLa cells superinfected with HSV-2; assay type: cell-based
Description: (§1) HeLa and Vero cell cultures were maintained in Eagles Minimal Essential Medium (EMEM) which was supplemented with glutamine, penicillin, streptomycin and 10% fetal calf serum (10% EMEM). Stock cultures of HSV-2 (strain MS available from ATCC VR-540) were grown in and harvested from Vero cells. Viral stocks were titered in Vero cells according to established procedures.
Plasmid pON 245^ori- contains the promoter of the HSV-1 thymidine kinase (tk) gene located immediately 5'of the E. coli lac Z gene. In this arrangement, the tk promoter controls transcription from the bacterial gene in transient expression assays. Additionally, an SV40 polyadenylation signal is present at the 3' end of the lac Z gene to allow for the efficient translation of the mRNA in eucaryotic cells. The expression of beta galactosidase in a transient assay using pON 245^ori- is dependent upon superinfection of the transfected cells with HSV. […] For example see U.S. application Ser. No. 07/435,491 filed Sep. 5, 1989, the disclosure of which is incorporated herein by reference thereto.
HeLa cells were seeded into 96 well microtiter plates and allowed to grow to 80% confluency (approximately 35000 cells/well). One half microgram of plasmid pON 245^ori- DNA was introduced into the cells of each well by the […] precipitation technique (Grahman and Van der Eb, 1973). Four to six hours later, the cells were rinsed with hank's Balanced Salt Solution (HBSS), overlaid with 10% EMEM and incubated at 37° C. At 24 hours post-transfection, cells were rinsed, overlaid with 10% EMEM again and re-incubated at 37° C. At 48 hours post-transfection, cells were rinsed and overlaid with either EMEM containing 2% fetal calf serum (2% EMEM), 2% EMEM containing HSV-2 (strain MS, Multiplicity of Infection [moi]=5 pfu/cell) or 2% EMEM containing HSV-2 and the appropriate concentration of Schering compound to be tested. Twenty-four hours later, the cells were harvested and assayed for beta galactosidase activity as described below.
All determinations of beta galactosidase activity were performed in 96 well microtiter plates. The intracellular level of beta galactosidase activity in each well was determined from cell lysates of the monolayer cultures. Aliquots were assayed by incubation in the presence of beta galactosidase substrate, 4-methylumbelliferyl-β-D-galactoside (MUG, 125 ug/ml, Sigma), for 2 hours. The generation of fluorescent product was quantified on a Microfluor microfluorimeter (Dynatech) after addition of 0.1M glycine, pH 10.3 (Spaete and Mocarski, 1985). The inhibitory activity of a compound was plotted versus the concentration and an IC50 value (the concentration of compound required to reduce beta glactosidase expression by 50%) was obtained for each compound tested.

[1] = Compound toxicity assay: inhibition of HeLa cell translation (3H-leucine incorporation); assay type: cell-based; conditions: human; Table II; HeLa cells; read-out: Cytotoxicity 3H-LEU assay IC50
Description: as §1
HeLa cells were treated with inhibitory compound for 24 hours, after which levels of translational activity were assayed.
For assay of translational activity, HeLa cultures were grown to 80% confluency in 96 well microtiter plates, treated with appropriate concentrations of compound in 2% EMEM during an overnight incubation at 37° C., then rinsed with HBSS and overlaid with […] of 2% EMEM containing 8 uCi of tritiated leucine (^3 H-LEU, […], Amersham Corp., Arlington Heights, Ill.). After a 1 hour incubation at 36.5°C., the cells were rinsed twice with phosphate buffered saline (PBS) and lysed in 400 ul/well of 1×PBS, 0.5% sodium dodecyl sulphate (SDS). After a 10 min incubation at 36.5° C., the contents of the well were transferred to a well in a Millititer HA microfiltration plate (Millipore Corp., Bedford, Mass.). The TCA insoluble proteins were precipitated onto the filter disc by a 10 min fixation with 5% TCA, followed by filtration under vacuum and three 10 minute rinses with 95% ethanol. The filters were dried at room temperature, cut from the milltitier plate and transferred to scintillation vials. TCA precipitable counts were assayed in 5 ml of Scintisol (Isolab, Akron, Ohio). The inhibitory activity of a compound was plotted versus the concentration and an IC50 value (that concentration of the compound required to decrease cellular translational activity by 50%) was derived for each compound.

[2] = Human alphaherpesvirus 2, Table II, HeLa cells, HSV-2 strain MS, 24 h, read-out: Anti-HSV activity, HSV-β-GAL assay IC50
[3] = Human alphaherpesvirus 2, HeLa, 24 h, read-out: Anti-HSV activity, HSV-β-GAL assay IC50
[4] = Human alphaherpesvirus 2, Table II^1, HeLa cells, HSV-2 strain MS, 24 h, read-out: Anti-HSV activity HSV-β-Gal assay IC50
[5] = Human alphaherpesvirus 2, HeLa, read-out: HSV: antiHSV activity, HSVβ-Gal Assay, IC50

Compound	IC50 (HSV-2 (strain MS); [2])	CC50 at 24 h [1]	further results
4-Amino-7-Acetyloxy-8-Methyl-Benzopyran-2-one [Compound 68]	–	–	Anti-HSV activity HSV-β-Gal assay IC50 (HSV-2 (strain MS); Table II^1, HeLa cells, HSV-2 strain MS, 24 h): 30.0 µg/mL
COc1c(SC)c(=O)n(Cc2ccc(O[Si](C)(C)C(C)(C)C)cc2)c2cc(C)c(C)cc12 [Compound 1]	1.5 µg/mL (≈ 3.19 µM)	1.8 µg/mL (≈ 3.83 µM)	–
CCCCCCn1c(=O)c(C2NCCS2)c(OC)c2ccccc21 (centres unmarked) [Compound 2, 1-Hexyl-3-(2-thiazolidinyl)-4-methoxy-2(1H)-Quinolinone]	–	32 µg/mL (≈ 92.4 µM)	IC50 (HSV-2 (strain MS); [3]): 2 µg/mL (≈ 5.77 µM)
CCCCCCn1c(=O)c(C=NOC)c(OC)c2ccccc21 [Compound 3, 1-Hexyl-3-Methoximinomethyl-4-Methoxy-2(1H)-Quinolinone]	2.5 µg/mL (≈ 7.9 µM)	12.6 µg/mL (≈ 39.8 µM)	–
CCCCCCn1c(=O)c(C=NO)c(OC)c2cc(C)ccc21 [Compound 4, 1-Hexyl-3-Oximinomethyl-4-Methoxy-6-Methyl-2(1H )-Quinolinone]	–	100 µg/mL (≈ 316 µM)	IC50 (HSV-2 (strain MS); [3]): 3 µg/mL (≈ 9.48 µM)
Cc1cc2c(OCCN(C)C)c(SCO)c(=O)n(Cc3ccc(O[Si](C)(C)C(C)(C)C)cc3)c2cc1C [Compound 5]	3 µg/mL (≈ 5.53 µM)	15 µg/mL (≈ 27.6 µM)	–
CCCCCCn1c(=O)c(Cn2ncnn2)c(OC)c2ccccc21 [Compound 6, 1-hexyl-3-(2-tetrazolylmethyl)-4-methoxy-2(1H)-quinolinone]	–	7 µg/mL (≈ 20.5 µM)	IC50 (HSV-2 (strain MS); [3]): 3 µg/mL (≈ 8.79 µM)
CCCCCCn1c(=O)c(C2NCCS2)c(OC)c2cc(C)ccc21 (centres unmarked) [Compound 8, 1-Hexyl-3-(2-thiazolidinyl)-4-methoxy-6-methyl-2(1H)-Quinolinone]	–	3 µg/mL (≈ 8.32 µM)	IC50 (HSV-2 (strain MS); [3]): < 3 µg/mL
CCCCCCn1c(=O)c(Cn2cncn2)c(OC)c2cc(C)ccc21 [Compound 10, 1-Hexyl-3-(1,2,4-Triazol-1-ylmethyl)-4-Methoxy-6-Methyl-2(1H)-Quinolinone]	4 µg/mL (≈ 11.3 µM)	> 100 µg/mL	–
CCCCCCn1c(=O)c(Cn2ccnc2)c(OC)c2cc(C)ccc21 [Compound 11, 1-Hexyl-3-(1H-imidazol-1-ylmethyl)-4-methoxy-6-methyl-2(1H)-quinolinone]	4.5 µg/mL (≈ 12.7 µM)	17 µg/mL (≈ 48.1 µM)	–
CCCCCCn1c(=O)c(Cn2cnnc2)c(OC)c2cc(C)ccc21 [Compound 12, 1-hexyl-3-(1,2,4-triazol-4-ylmethyl)-4-methoxy-6-methyl-2(1H)-quinolinone]	4.5 µg/mL (≈ 12.7 µM)	32 µg/mL (≈ 90.3 µM)	–
CCCCCCn1c(=O)c(Cn2ncnn2)c(OC)c2cc(C)ccc21 [Compound 13, 1-hexyl-3-(2-tetrazolylmethyl)-4-methoxy-6-methyl-2(1H)-quinolinone]	5 µg/mL (≈ 14.1 µM)	17 µg/mL (≈ 47.8 µM)	–
CCCCCCn1c(=O)c(Cn2cnnn2)c(OC)c2cc(C)ccc21 [Compound 14, 1-Hexyl-3-(1-Tetrazolylmethyl)-4-Methoxy-6-Methyl-2(1H)-Quinolinone]	5 µg/mL (≈ 14.1 µM)	> 100 µg/mL	–
CCCCCCn1c(=O)c(CBr)c(OC)c2ccccc21 [Compound 15, 1-Hexyl-3-Bromomethyl-4-Methoxy-2(1H)-Quinolinone]	5 µg/mL (≈ 14.2 µM)	25 µg/mL (≈ 71 µM)	–
CCCCCCn1c(=O)c(Cn2cncn2)c(OC)c2ccccc21 [Compound 16, 1-Hexyl-3(1,2,4-Triazol-1-ylmethyl)-4-Methoxy-2(1H)-Quinolinone]	5 µg/mL (≈ 14.7 µM)	18 µg/mL (≈ 52.9 µM)	–
CCCCCCn1c(=O)c(C=NO)c(OC)c2ccccc21 [Compound 17, 1-Hexyl-3-Hydroximinomethyl-4-Methoxy-2(1H)-Quinolinone]	6 µg/mL (≈ 19.8 µM)	25 µg/mL (≈ 82.7 µM)	–
CCCCCCn1c(=O)c(Cn2cnnn2)c(OC)c2ccccc21 [Compound 18, 1-Hexyl-3-(1-tetrazolymethyl)-4-methoxy-2(1H)-quinolinone]	6 µg/mL (≈ 17.6 µM)	18 µg/mL (≈ 52.7 µM)	–

Compound	IC50 (HSV-2 (strain MS); [2])	CC50 at 24 h [1]	further results
CCCCCCn1c(=O)c(C(=O)OCC)c(OC)c2cc(C)ccc21 [Compound 19, 1-hexyl-3-ethoxycarbonyl-4-methoxy-6-methyl-2(1H)-quinolinone]	7 µg/mL (≈ 20.3 µM)	–	–
CON=Cc1c(OC)c2ccccc2n(Cc2ccccc2)c1=O [Compound 20, 1-Benzyl-3-Methoxyiminomethyl-4-Methoxy-2(1H)-Quinolinone]	7 µg/mL (≈ 21.7 µM)	–	–
COc1c(Sc2ccccc2)c(=O)n(C)c2ccc(F)cc12 [Compound 22]	8 µg/mL (≈ 25.4 µM)	25 µg/mL (≈ 79.3 µM)	–
CCCCCCn1c(=O)c(C2OCCO2)c(OC)c2cc(C)ccc21 [Compound 23, 1-Hexyl-3-[2-(1,3-dioxolano)]-4-methoxy-6-methyl-2(1H)-Quinolinone]	9 µg/mL (≈ 26.1 µM)	> 100 µg/mL	–
CCCCCCn1c(=O)c(C2OCCO2)c(OC)c2ccccc21 [Compound 24]	10 µg/mL (≈ 30.2 µM)	–	–
COc1c(SC)c(=O)n(Cc2ccc(O)cc2)c2cc(C)c(C)cc12 [Compound 25]	10 µg/mL (≈ 28.1 µM)	–	–
CCCCCCn1c(=O)c(C=NOC)c(OC)c2cc(C)ccc21 [Compound 26, 1-Hexyl-3-Methoximinomethyl-4-Methoxy-6-Methyl-2(1H)-Quinolinone]	7 µg/mL (≈ 21.2 µM)	27 µg/mL (≈ 81.7 µM)	–
Cc1c(OC(=O)c2ccco2)ccc2c(N)cc(=O)oc12 [Compound 65, 4-Amino-7-(2-Furoyloxy)-8-Methyl-Benzopyran-2-one]	–	–	IC50 (HSV-2 (strain MS); [4]): > 25 µg/mL
Cc1c(OC(=O)c2cccs2)ccc2c(N)cc(=O)oc12 [Compound 66, 4-Amino-7-(Thiophene-2-carbonyloxy)-8-Methyl-Benzopyran-2-one]	–	–	IC50 (HSV-2 (strain MS); [4]): > 25 µg/mL
Cc1c(OC(=O)c2ccncc2)ccc2c(N)cc(=O)oc12 [Compound 67, 4-Amino-7-Isonicotinoxy-8-Methyl-Benzopyran-2-one]	–	–	IC50 (HSV-2 (strain MS); [4]): 14 µg/mL (≈ 47.3 µM)
Cc1c(OC(=O)[C@H](C)NC(=O)OC(C)(C)C)ccc2c(N)cc(=O)oc12 [Compound 71, 4-Amino-7-(BOC-L-Alanyloxy)-8-Methyl-Benzopyran-2-one]	–	–	IC50 (HSV-2 (strain MS); [4]): > 25 µg/mL
CC(=O)Oc1c(Sc2ccccc2)c(=O)n(C)c2ccc(F)cc12 [Compound 102]	–	–	IC50 (HSV-2 (strain MS); [5]): 21 µg/mL (≈ 61.2 µM)
CCCCCCn1c(=O)c(C(=O)OCC)c(OC(=O)c2cccn2C)c2cc(C)ccc21 [Compound 103]	–	–	IC50 (HSV-2 (strain MS); [5]): 25 µg/mL (≈ 57 µM)
C=CCOC(=O)c1c(OC)c2cc(C)ccc2n(CCCCCC)c1=O [Compound 104]	–	–	IC50 (HSV-2 (strain MS); [5]): > 25 µg/mL
CCCCCCn1c(=O)c(C(=O)O)c(OC)c2cc(C)ccc21 [Compound 105]	–	–	IC50 (HSV-2 (strain MS); [5]): > 25 µg/mL
COc1c(CCO)c(=O)n(C)c2ccccc12 [Compound 106]	–	–	IC50 (HSV-2 (strain MS); [5]): > 25 µg/mL
CCOC(=O)c1c(OC)c2ccccc2n(C)c1=O [Compound 107]	–	–	IC50 (HSV-2 (strain MS); [5]): > 25 µg/mL
